Measurements taken from patent publication US6887879B2, “Pharmaceutical combination of antiviral agents” (priority 1999, dated 2005).
Like-named read-outs stand apart in the source and are kept apart here.

Legend:
wt HIV-1 RT [1] = target: T1, wt HIV-1 RT (Human immunodeficiency virus type 1 group M subtype B, UniProt P04585); experiment: RT inhibition assay, RNA dependent DNA polymerase activity; assay type: biochemical
T1 construct: Wild type (wt) version of recombinant HIV-1 RT were expressed with a histidine tag; histidine tag; made in house; host or cells: E. coli
Procedure: Wild type (wt) version of recombinant HIV-1 RT were expressed with a histidine tag in an E. coli protein expression system.
RT inhibition assay. The inhibition of HIV-1 RT RNA dependent DNA polymerase activity of DXG-TP was assessed under steady-state enzymatic kinetics by employing homopolymeric RNA templates/DNA primers (T/P) and a heteropolymeric RNA template/DNA primer. The heteropolymeric RNA template contains the HIV-1 primer binding sequence, US and R regions (designated as HIV-PBS). […] The oligodeoxynucleotide primer (dPR) is an 18-mer (5′-[…]-3′) which is complementary to the HIV-1 primer binding sequence. […] The reverse transcription reaction contained final concentrations of 50 mM Tris-HCl, pH 7.8, 60 mM KCl, 10 mM MgCl2, 0.1 U/ml homopolymeric T/P and 5 μM [^3H]dNTP substrate or 25 nM HIV-PBS/dPR and 5 μM each of dTTP, dCTP, dGTP and [-^32P]dATP in […]. […] Inhibition of dNTP incorporation/chain termination. The effect of DXG-TP on RT activity was also assessed using the chain termination/dNTP incorporation assay in which inhibition of nascent DNA synthesis (chain termination) was monitored based upon cDNA synthesis as previously described (Arts et al., 1993; J. Biol. Hem. 269:14672-14680 and Gu et al., 1995, Proc. Natl. Acad. Sci. USA 92:2760-2764). HIV-PBS RNA template and dPR DNA primer were used in this system. The RT reactions were performed in […] containing 50 mM Tris (pH 7.8), 75 mM KCl, 10 mM MgCl2, 100 μM of dNTPs. The HIV-PBS RNA template (50 nM) and [−^32P]-ATP labeled oligodeoxynucleotide primer (125 nM) were included in the reaction. The mixture was first denatured at 85° C. for 2 minutes, then cooled to 55° C. for 8 min, and finally cooled to 37° C. at which time recombinant HIV RT was added (42.5 nM). The reactions were allowed to proceed at 37° C. for 60 min in the presence or absence of inhibitors. The transcribed DNA products were separated on a 5% denaturing polyacrylamide gel and visualized by exposure to X-ray film.

wt HIV-1 RT [2] = target: T1, wt HIV-1 RT; experiment: Chain elongation/termination assay; assay type: biochemical; details: HIV-PBS template, dPR primer, raising inhibitor concentration
Procedure: RT inhibition assay. The inhibition of HIV-1 RT RNA dependent DNA polymerase activity of DXG-TP was assessed under steady-state enzymatic kinetics by employing homopolymeric RNA templates/DNA primers (T/P) and a heteropolymeric RNA template/DNA primer. The heteropolymeric RNA template contains the HIV-1 primer binding sequence, US and R regions (designated as HIV-PBS). […] The oligodeoxynucleotide primer (dPR) is an 18-mer (5′-[…]-3′) which is complementary to the HIV-1 primer binding sequence. […] Inhibition of dNTP incorporation/chain termination. […] HIV-PBS RNA template and dPR DNA primer were used in this system. The RT reactions were performed in […] containing 50 mM Tris (pH 7.8), 75 mM KCl, 10 mM MgCl2, 100 μM of dNTPs. […] The reactions were allowed to proceed at 37° C. for 60 min in the presence or absence of inhibitors. The transcribed DNA products were separated on a 5% denaturing polyacrylamide gel and visualized by exposure to X-ray film.
The chain elongation/termination assay provides a method to directly visualize the products of incorporation of dideoxynucleotide monophosphates into nascent DNA by monitoring the reaction products using polyacrylamide gel electrophoresis. The experiment was performed using wt HIV-1 RT, and HIV-PBS heteropolymeric template, and [^32p]ATP labeled dPR primer in the presence of various concentrations of RT inhibitor. […] As comparison, NNRTI nevirapine was also used in the assay.

[3] = Cytotoxicity, [3H]-thymidine uptake, HSF; assay type: cell-based; details: human, human skin fibroblasts (HSF)
Procedure: (§1) The cellular toxicity of the BCH compounds were assessed on various cells using [^3H]-thymidine uptake. The various cells, including Molt-4, HT1080, DU-145, HepG 2 and HSF, were plated at a concentration of 1-2×10^3 cells per well (96 well plates). However, PHA-stimulated PBMCs were cultured at a concentration of 4×10^4. After a 24 hr incubation period, 10-fold serial diluted compounds (10^−4 M to 10^−10 M) were added to the culture medium and the cells were further incubated for 72 hrs. [^3H]-thymidine was added during the final 18 hr incubation period. After incubation with the [^3H]-thymidine, the cells were washed once with PBS, treated with trypsin it the cells were adherent, and then resuspended in water (hypotonic lysing of cells) The cellular extract was applied directly to a Tomtec Harvester 96. Using this instrument the extracted DNA is adsorbed onto filters, washed and the incorporated [^3H]-thymidine is then counted.

[4] = Cytotoxicity, [3H]-thymidine uptake, HT-1080; assay type: cell-based; details: human, HT-1080 cells
Procedure: as §1

[5] = Cytotoxicity, [3H]-thymidine uptake, DU145; assay type: cell-based; details: human, DU145 cells
Procedure: as §1

HIV-1IIIB = experiment: Anti-HIV-1 antiviral assay, laboratory strain HIV-1IIIB, RT activity in culture supernatants
recombinant HXB2-D 65R = experiment: microbe, parasite or virus in culture; assay type: cell-based, HIV-1; details: Human immunodeficiency virus 1, HXB2, read-out: EC50 in CBMCs
Procedure: (§2) HIV-1IIIB laboratory strain and HXB2-D recombinant of HIV-1 were kindly supplied by R. C. Gallo (Institute of Human Virology, Baltimore, Md.). […] The recombinant viruses were generated by transfection of proviral DNA into MT-4 cells with Lipofectamine using the protocol recommended by the manufacturer .(Gibco BRL, Montreal, Canada). […] Stock viruses were prepared from clarified culture supernatants by centrifugation and stored at −70° C. The viruses were titrated by limited dilution with a 4-fold serial dilution.

recombinant HXB2-D 184V = experiment: microbe, parasite or virus in culture; assay type: cell-based, HIV-1; details: Human immunodeficiency virus 1, HXB2, read-out: EC50 in CBMCs
Procedure: as §2

recombinant HXB2-D 74V = experiment: microbe, parasite or virus in culture; assay type: cell-based, HIV-1; details: Human immunodeficiency virus 1, HXB2, read-out: EC50 in CBMCs
Procedure: as §2

[6] = tested on: recombinant HXB2-D 41L/70R/215Y/219Q; experiment: microbe, parasite or virus in culture; assay type: cell-based, HIV-1; details: Human immunodeficiency virus 1, HXB2, read-out: EC50 in CBMCs
Procedure: as §2

[7] = tested on: recombinant HXB2-D 41L/215Y/184V; experiment: microbe, parasite or virus in culture; assay type: cell-based, HIV-1; details: Human immunodeficiency virus 1, HXB2, read-out: EC50 in CBMCs
Procedure: as §2

[8] = Cytotoxicity, [3H]-thymidine uptake, HepG2; assay type: cell-based; details: human, HepG2 cells
Procedure: as §1

[9] = tested on: HIV-1 clinical isolate 4924; experiment: microbe, parasite or virus in culture; assay type: cell-based
Procedure: as §2
(§3) The population of HIV-1 in infected individual is quasispecies and the sensitivity of these different viruses found in clinical isolates to antiviral chemotherapy might be quite variable. In addition, HIV-1 isolates obtained from patients receiving long-term antiretroviral therapy might behave differently from cloned virus containing genetically engineered mutations in the RT gene. For these reasons, clinical isolates of HIV-1 from antiviral naive and drug-treated patients were assayed in PHA-stimulated CBMCs for their sensitivity to DXG and DAPD accompanied with approved antiretroviral agents. The genotype of the HIV-1 clinical isolates were determined as described above.

[10] = tested on: HIV-1 clinical isolate 4877; experiment: microbe, parasite or virus in culture; assay type: cell-based; details: Human immunodeficiency virus 1, read-out: EC50 in CBMCs
Procedure: as §2, §3

[11] = tested on: recombinant HXB2-D 106A/181C; experiment: microbe, parasite or virus in culture; assay type: cell-based, HIV-1; details: Human immunodeficiency virus 1, HXB2, read-out: EC50 in CBMCs
Procedure: as §2

[12] = tested on: HIV-1 clinical isolate 4833; experiment: microbe, parasite or virus in culture; assay type: cell-based
Procedure: as §2, §3

[13] = tested on: HIV-1 clinical isolate 4526; experiment: Antiviral assay, HIV-1 clinical isolate 4526, CBMCs; assay type: cell-based; details: Human immunodeficiency virus 1, naive
Procedure: as §2, §3

[14] = tested on: recombinant HXB2-D 10R/46I/63P/82T/84V; experiment: microbe, parasite or virus in culture; assay type: cell-based, HIV-1; details: Human immunodeficiency virus 1, HXB2, read-out: EC50 in CBMCs
Procedure: as §2

Nc1nc2c(ncn2[C@H]2CC[C@@H](COP(=O)(O)OP(=O)(O)OP(=O)(O)O)O2)c(=O)[nH]1 [ddGTP, dideoxyguanosine triphosphate, reference compound]
IC50 (wt HIV-1 RT [1]; template/primer HIV-PBS/dPR, substrate dNTPs, each 5 μM): 74 ± 8 nM | IC50 (wt HIV-1 RT [1]; template/primer poly(rC).oligo(dG)12-15, substrate dGTP): 11 ± 0.7 nM

Cc1cn([C@H]2C[C@H](N=[N+]=[N-])[C@@H](COP(=O)(O)OP(=O)(O)OP(=O)(O)O)O2)c(=O)[nH]c1=O [AZT-TP]
chain termination / full-length products, in words (wt HIV-1 RT [2]): caused increasing chain termination but decreasing full-length products

Nc1ccn([C@@H]2CS[C@H](CO)O2)c(=O)n1 [lamivudine, reference compound]
CC50 at 72 h [3]: 400000 nM | CC50 at 72 h [4]: > 500000 nM | CC50 at 72 h [5]: > 500000 nM | EC50 (HIV-1IIIB; Human immunodeficiency virus 1, Jurkat, read-out: EC50, mean values ± SD): 530 ± 20 nM | EC50 (HIV-1IIIB; Human immunodeficiency virus 1, MT2, read-out: EC50, mean values ± SD): 91 ± 80 nM | EC50 (HIV-1IIIB; Human immunodeficiency virus 1, MT4, read-out: EC50, mean values ± SD): 56 ± 14 nM | EC50 (HIV-1IIIB; Human immunodeficiency virus 1, read-out: EC50, mean values ± SD): 23 ± 11 nM | EC50 (recombinant HXB2-D 65R): 360 ± 170 nM | EC50 (recombinant HXB2-D 184V): > 50000 nM | EC50 (recombinant HXB2-D 74V): 120 ± 70 nM | EC50 [6]: 62 ± 20 nM | EC50 [7]: > 50000 nM | CC50 at 72 h [8]: 350000 nM

Cc1ccnc2c1NC(=O)c1cccnc1N2C1CC1 [nevirapine, reference compound]
EC50 ([9]; Human immunodeficiency virus 1): > 10000 nM | EC50 ([9]; Human immunodeficiency virus 1, read-out: EC50 in CBMCs): > 10000 nM | EC50 [10]: 65 nM | chain termination / full-length products, in words (wt HIV-1 RT [2]): showed the decrease of the full-length DNA products, but there were no extra chain termination bands generated | EC50 [11]: > 10000 nM

(+) enantiomer of -D-1′,3′-dioxolane guanosine
EC50 (HIV-1IIIB; read-out: EC50, mean values ± SD, MT-2 cells, HIV-1IIIB): 700 nM

CC(C)(C)NC(=O)[C@@H]1C[C@@H]2CCCC[C@@H]2CN1C[C@@H](O)[C@H](Cc1ccccc1)NC(=O)[C@H](CC(N)=O)NC(=O)c1ccc2ccccc2n1 [saquinavir, reference compound]
decreased sensitivity compared to the baseline isolate 4526 [12]: about 20 fold | EC50 ([12]; Human immunodeficiency virus 1, therapy Saquinavir (48 weeks), read-out: EC50 in CBMCs): 110 nM | EC50 [13]: 6.3 nM | EC50 [14]: 75 nM
